Source: patent US20250108100A1, “C-TERMINAL FRAGMENT OF APOLIPOPROTEIN E AND APPLICATION THEREOF IN INHIBITING y-SECRETASE ACTIVITY” (SYNPHATEC (SHANGHAI) BIOPHARMACEUTICAL TECHNOLOGY CO., LTD., priority 2022, published 2025)
“Also recorded” adds a separate entry of the source.

Experiments:
[1] = test system: endogenously expressed APP in primary cultured mouse neurons; experiment: APP metabolite ~14 kD CTF in primary cultured mouse neurons (Western blot); type: cell-based; conditions: PF03084014 at 1 uM
[2] = test system: N100 (NOTCH fragment); experiment: γ-cleavage of NOTCH fragment N100 in HEK 293T cells co-expressing γ-secretase (Western blot); type: cell-based; conditions: N100-V5 and γ-secretase, PF03084014 at 1 uM
Description: (§1) Plasmids were transfected in HEK 293T or N2A cells for 36-48 hours and then lysed in cell lysis buffer [10% 1M tris-HCl (pH=6.8), 4% SDS, 20% glycerol, 0.01% bromophenol blue]. Lysates were shaken at room temperature for 10 min, then boiled for 10 min, and centrifuged at 12,000×g for 10 min. Proteins were run on 8% or 12% Tris-glycine SDS-PAGE and transferred to PVDF membranes (Life Technologies). Samples were incubated overnight at 4° C. with primary antibody diluted in 5% BSA buffer (in 1×TBST). After washing 3 times with 1×TBST, they were incubated with secondary antibody diluted in 5% BSA buffer (in 1×TBST) for 2 hours at room temperature. Finally, after washing 3 times with 1×TBST, the signal was detected by ECL Western blotting substrate (Solarbio, PE0010).

[3] = biological target: T1, human γ-secretase (Homo sapiens, UniProt P49768); experiment: Purified system: cleavage of purified β-CTF by purified γ-secretase to Aβ40 (ELISA); type: biochemical
T1 construct: full-length PS1, FL-PS1; N-terminal fragment of PS1, PS1 NTF; C-terminal fragment of PS1, PS1 CTF; made in house; host or cells: HEK 293T

[4] = test system: APLP1; experiment: γ-cleavage of APLP1 expressed in HEK 293T cells (Western blot); type: cell-based; conditions: PF03084014 at 1 μM
Description: (§2) • a) A plasmid expressing the target protein in mammalian cells was constructed, and the protein expression promoter is CAG. • b) The target protein was expressed in HEK 293T cell line. Cells were subcultured one day before transfection, and transfection was performed when the degree of cell adhesion reached 70%-80%. The transfection reagent was lipofectamine2000 (ThermoFisher). • c) 4-6 hours post transfection, the medium were replaced with fresh cell culture medium. • d) 36-48 hours post transfection, the cells were lysed (10% 1M tris-HCl (pH=6.8), 4% SDS, 20% glycerol, 0.01% bromophenol blue), and the protein samples were collected and used for Western blot or stored in a −80° C. freezer. • e) Polyacrylamide gel electrophoresis. Before protein loading, the protein was boiled at 98° C. for 10 min, and then centrifuged at 12000 rpm for 10 min. Electrophoresis: 80V for the upper stacking gel; 120V for the lower separating gel. • f) Protein transfer. […]
Plasmids were transfected in HEK 293T or N2A cells for 36-48 hours and then lysed in cell lysis buffer [10% 1M tris-HCl (pH=6.8), 4% SDS, 20% glycerol, 0.01% bromophenol blue]. […] Finally, after washing 3 times with 1×TBST, the signal was detected by ECL Western blotting substrate (Solarbio, PE0010).

[5] = test system: γ-secretase (PS1, PS2) knockout HEK 293T cells; experiment: PS1 KO, PS2 KO and PS1/2 dKO HEK 293T cell lines: α-CTF and Aβ40; type: cell-based, human; conditions: PS1 single knockout HEK 293T cells
Description: as §2

[6] = test system: human APP co-expressed in HEK 293T cells; experiment: α-CTF produced by APP co-expressed in HEK 293T cells (Western blot); type: cell-based; conditions: for α-CTF produced by co-expressed APP: Western blot, vs GFP control
Description: • a) A plasmid expressing the target protein in mammalian cells was constructed, and the protein expression promoter is CAG. • b) The target protein was expressed in HEK 293T cell line. Cells were subcultured one day before transfection, and transfection was performed when the degree of cell adhesion reached 70%-80%. The transfection reagent was lipofectamine2000 (ThermoFisher). • c) 4-6 hours post transfection, the medium were replaced with fresh cell culture medium. • d) 36-48 hours post transfection, the cells were lysed (10% 1M tris-HCl (pH=6.8), 4% SDS, 20% glycerol, 0.01% bromophenol blue), and the protein samples were collected and used for Western blot or stored in a −80° C. freezer. • e) Polyacrylamide gel electrophoresis. Before protein loading, the protein was boiled at 98° C. for 10 min, and then centrifuged at 12000 rpm for 10 min. Electrophoresis: 80V for the upper stacking gel; 120V for the lower separating gel. • f) Protein transfer. The filter paper was soaked in the electrophoresis solution before use, and the PVDF membrane was put in methanol for 10s to activate, and the gel after electrophoresis was taken out from the electrophoresis tank, put in the order of filter paper—PVD membrane—gel-filter paper from bottom to top, and they were put into the transfer instrument, with transferring in constant current at 0.1 A for 70 min. • g) Blocking and antibody incubation: the transferred PVDF membrane was placed in 5% BSA/TBST blocking solution, and blocked on a shaker at room temperature for 1 hour. The primary antibody was used to incubate at 4° C. overnight on a shaker (12-16 h); 1×TBST was used to wash three times, once every 10 minutes; the secondary antibody was used to incubate, shaked at room temperature for 1-2 h; 1×TBST was used to wash three times, once every 10 minutes. • h) Imaging by development: development was performed with ECL chemiluminescence hypersensitive chromogenic reagent.
as §1
(§3) Data were analyzed by GraphPad Prism software (v6) using unpaired, paired, or one-sample t-tests. Aβ40 and Aβ42 levels were normalized to the corresponding GFP controls. α-CTF levels were normalized to FL-APP and corresponding GFP controls. All data are represented as mean±SEM. Statistical significance was defined as p<0.05. One, two, three and four stars (*) in the graph indicate p-values <0.05, <0.01, <0.001 and <0.0001, respectively.

[7] = test system: human APP and β-secretase co-expressed in HEK 293T cells; experiment: HEK 293T cells co-expressing APP and β-secretase (BACE1): Aβ ELISA and β-CTF Western blot; type: cell-based; conditions: APP and β-secretase co-expressed, ELISA, vs GFP control
Description: The experiment was performed according to the standard procedure in the ELISA analysis kit of Invitrogen Company. • a) The target protein was expressed in HEK 293T cell line. Cells were subcultured one day before transfection, and transfection was performed when the degree of cell adhesion reached 70%-80%. The transfection reagent was lipofectamine2000 (ThermoFisher). • b) 4-6 hours post transfection, medium were replaced with fresh cell culture medium. • c) 36-48 hours post transfection, the cell culture medium was collected, and then the ELISA process was performed or the cell culture medium was frozen in a −80° C. refrigerator. • d) 50 μl of standard samples and experimental samples were added to each well of the 96-well plate. • e) 50 μl of human-derived Aβ40 or Aβ42 or mouse-derived Aβ40 detection antibody was added to each well of the 96-well plate. • f) The above samples were shaken gently and placed at room temperature for 3 hours. • g) The liquid in the well were removed, and the plate was washed 4 times with 1× wash buffer. • h) 100 μl of the buffer containing 1× anti-Rabbit IgG HRP was added. • i) The plate was shaken gently and placed at room temperature for […]. • j) The liquid in the well were removed, and the well was washed 4 times with 1× wash buffer. • k) 100 μl of Stabilized Chromogen was added to each well, and the plate was placed in the dark for 30 minutes at room temperature. • l) 100 μl of Stop Solution was added to each well. • m) The absorbance at 450 nm was measured with a microplate reader. 2.4 qRT-PCR
48 hours after transfection of HEK 293T cells and N2A cells, or 4.5 days after lentivirus infection of neurons, media and lysates were collected. Aβ40 and Aβ42 in the culture medium and cell lysates were detected by an Aβ ELISA kit as indicated in the protocol. (Invitrogen Technology; KHB3481 for human Aβ40, KHB3441 for human Aβ42 and KMB3481 for mouse Aβ40).
as §3

[8] = test system: APP co-expressed in mouse neuron cell line N2A; experiment: α-CTF produced by APP co-expressed in N2A cells (Western blot); type: cell-based; conditions: Western blot, vs GFP control
Description: as §1, §3

[9] = test system: endogenously expressed APP; experiment: APEX2 proximity labeling of endogenous APP in primary cultured neurons; type: binding; conditions: primary cultured rat neurons
[10] = test system: APP; experiment: APEX2 proximity labeling between ApoE and APP in HEK 293T cells; type: binding, human; conditions: co-expressed in HEK 293T cells
Description: (§4) A method for detecting protein interactions in living cells by targeting APEX2 was applied as previously described (Hung et al., 2016). Approximately 30 hours after transfection with APEX2 plasmids via Lipofectamine2000 (Invitrogen Technology), HEK 293T cells were incubated in 1 ml of complete medium with or without 250 uM biotinphenol (BP) for 30 minutes at 37° C. Cells were treated with 1 mM H2O2 for 1 min and cells were washed 3 times in quencher solution (10 mM sodium ascorbate, 5 mM Trolox and 10 mM sodium azide solution in 1×DPBS). Cells were lysed in RIPA lysis buffer (1× protein inhibitor cocktail, 1 mM PMSF and 10 mM sodium ascorbate, 5 mM Trolox and 10 mM sodium azide). The lysate was sonicated and centrifuged on ice (12,000×g, 4° C., 10 min), and the supernatant was incubated with streptavidin magnetic beads overnight at 4° C. The beads were collected using a magnetic rack and washed with a series of buffers (twice with RIPA buffer, once with 1M KCl, once with 0.1M Na2CO3, twice with 2 M urea in 10 mM Tris-HCl, pH 8.0, and twice with RIPA lysis buffer. Biotinylated proteins were eluted from the beads by boiling each sample in loading buffer comprising 2 mM biotin and 20 mM DTT for 10 min, and the eluates were collected. Samples proceed to Western blot.

[11] = biological target: T2, ADAM10 (α-secretase) (Homo sapiens, UniProt O14672); experiment: ApoE2-APEX2 proximity labeling of co-expressed ADAM10 in HEK 293T cells; type: binding
T2 construct: expressed in transfected cells; host or cells: HEK 293T
T2 sequence (O14672 214-748): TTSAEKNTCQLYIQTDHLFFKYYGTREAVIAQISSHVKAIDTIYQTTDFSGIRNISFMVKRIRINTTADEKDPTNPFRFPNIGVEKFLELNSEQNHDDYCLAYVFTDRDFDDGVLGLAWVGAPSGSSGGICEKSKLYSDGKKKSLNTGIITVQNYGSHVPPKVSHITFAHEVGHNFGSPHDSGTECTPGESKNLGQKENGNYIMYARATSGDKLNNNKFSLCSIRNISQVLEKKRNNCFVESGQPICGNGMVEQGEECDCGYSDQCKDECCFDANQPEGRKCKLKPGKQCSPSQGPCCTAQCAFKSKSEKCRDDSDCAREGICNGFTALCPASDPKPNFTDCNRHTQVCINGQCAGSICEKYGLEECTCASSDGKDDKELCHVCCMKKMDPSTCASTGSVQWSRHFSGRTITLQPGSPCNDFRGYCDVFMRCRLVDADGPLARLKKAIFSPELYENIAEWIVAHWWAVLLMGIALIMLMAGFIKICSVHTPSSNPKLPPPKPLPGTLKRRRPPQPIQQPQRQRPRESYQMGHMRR
Description: as §4

[12] = biological target: T3, PS2 (Homo sapiens, UniProt P49810); experiment: ApoE2-APEX2 proximity labeling of co-expressed PS2 in HEK 293T cells; type: binding
T3 construct: expressed in transfected cells; host or cells: HEK 293T
Description: as §4

APP, sequence (P05067 672-770 limits assumed): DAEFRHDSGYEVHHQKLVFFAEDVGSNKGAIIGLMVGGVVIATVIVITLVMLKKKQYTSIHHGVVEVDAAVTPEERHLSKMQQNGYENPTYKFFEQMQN

## CCC[C@H](N[C@H]1CCc2cc(F)cc(F)c2C1)C(=O)Nc1cn(C(C)(C)CNCC(C)(C)C)cn1 [PF03084014]
[1]
  level of ~14 kD CTF (CTF141D) produced by APP metabolism: significantly increased
[2]
  γ-secretase-dependent reduction of N100: reversed this reduction
[3]; 10 μM inhibitor
  generation of Aβ by γ-secretase and β-CTF: can inhibit the generation of Aβ; also recorded: can be inhibited
[3]; Example 2, legend b49: 1 uM inhibitor
  Aβ40 produced by incubation of γ-secretase with β-CTF: complete blocked
[4]
  α-like CTF of APLP1: significantly increase the α-like CTF; also recorded: enhancing its cleavage product; also recorded: increased the α-like CTF
[5]
  α-CTF in PS1 KO cells: further increased α-CTF levels
[6]; APP and PS1 co-expressed, PF03084014 at 1 μM
  α-CTF produced by APP co-expressed with PS1: significantly increases α-CTF; also recorded: can increase the production of α-CTF; also recorded: also increases α-CTF

## ApoA1: another apolipoprotein co-expressed with APP, apolipoprotein A1
[7]
  production of Aβ40: failed to alter
[6]
  α-CTF produced by co-expressed APP: failed to alter the levels of α-CTF

## ApoE4: human ApoE isoform ApoE4 (Arg112; Arg158)
[8]
  α-CTF produced by co-expressed APP: failed to alter α-CTF levels
[7]
  production of Aβ40: have no such effect; also recorded: failed to alter
[6]
  α-CTF produced by co-expressed APP: cannot significantly change α-CTF

## ApoE2-APEX2: ApoE2 fused to APEX2 (ascorbate peroxidase 2) for proximity labeling
[9]
  biotinylation of endogenously expressed APP: biotinylates
[10]
  biotinylation of FL-APP and α-CTF: could also be biotinylated
[11]
  biotinylation of co-expressed ADAM10: biotinylated
[12]
  biotinylation of co-expressed PS2: biotinylated

## CNC(=O)[C@@H](NC(=O)[C@H](CCCc1ccccc1)[C@H](C)N(O)C=O)C(C)(C)C [GI254023X, reference compound]
[6]; 1 μM
  α-CTF level after ADAM10 inhibitor: about 45%

## ApoE3: human apolipoprotein E3, full-length 299 amino acid residues, SEQ ID NO: 89
[8]
  α-CTF produced by co-expressed APP: significantly increased the α-CTF levels
[7]
  production of Aβ40: have no such effect
[6]
  α-CTF produced by co-expressed APP: can significantly increase α-CTF; also recorded: significantly increased the α-CTF levels

## CT ND3CD25: SEQ ID NO: 32; ApoE CT minus 3 N-terminal and 25 C-terminal residues (EEMGSRTRDRLDEVKEQVAEVRAKLEEQAQQIRLQAEAFQARLKSWFEPLVEDMQR)
[7]
  production of Aβ40: can still significantly reduce Aβ40

## ApoE2-V5: ApoE2 with tag protein V5 (SEQ ID NO: 82) at C-terminal
[6]
  α-CTF produced by co-expressed APP: can significantly increase the α-CTF

## V5-ApoE2: ApoE2 with tag protein V5 (SEQ ID NO: 82) at N-terminal
[6]
  α-CTF produced by co-expressed APP: can significantly increase the α-CTF
